Type in all cases: cell-based
Common to all, as to details: normal human epidermal keratinocytes; transcript numbers normalized to vehicle control; replicate values

Assay [1] relates to Beta-catenin. Put plainly: PCR gene expression, Beta-catenin. As to the method:
(§1) A vial of cryopreserved normal human epidermal keratinocytes (Adult or Neonatal) was removed from liquid N2 and placed in a 37° C. water bath for 1-2 minutes, or until completely thawed. The vial was then removed from the water bath and the excess water was wiped off. The vial was placed into a cell culture hood for sterility. The vial was wiped with 70% ethanol to air dry for 30 seconds. While in the cell culture hood, the cells were removed from the vial and placed into a 50 ml tube. The appropriate growth media (5 ml) was added drop wise while agitating the tube, allowing uniform mixture of the cells and medium while limiting cell death due to osmotic changes caused by freezing media, Medium (25 ml) was added to the 50 ml tube to bring the volume up to 30 ml. Into two 75 cm2 flasks, medium/cell solution (15 ml) was added, or to six 25 cm2 flasks, medium (5 ml) was added. Flasks were recapped and placed horizontally in a 37° C. humidified incubator with 5% CO2 for 24 hours. After 24 hours, the old medium was aspirated and fresh room temperature growth medium (15 ml) was added onto the cells. Prior to adding the fresh growth medium, it was brought up to room temperature using a room temperature water bath without the cover. The flasks containing cells with fresh media were placed back into the 37° C. incubator. Flasks containing the old media was replaced with fresh media repeatedly until the desired confluence (75%) was reached.
(§2) When the cells reached the desired confluency, they were removed from the incubator and the media was aspirated off using a vacuum trap. Hank's Buffered Saline Solution (HBSS; 10 ml of 1X; Mediatech, Inc.; Herndon, Va.) was placed into the flask and the entire surface area rinsed. The HBSS was then aspirated. Trypsin (1X; Mediatech, Inc.) was added in a 5 ml volume. The flasks were placed back into the incubator for 8 minutes. The flasks were taken from the incubator and 15 ml of Trypsin Neutralizing Solution (1X; Cascade Biologics; Portland, Oreg.) was added to each flask to neutralize the trypsin. […]

The subject of assay [2] is Collagen 4. Briefly: PCR gene expression, Collagen 4. The protocol:
as §1, §2

The subject of assay [3] is Collagen 7. Put plainly: PCR gene expression, Collagen 7. The protocol:
as §1, §2

In assay [4] the test system is Frizzled 10. Put plainly: PCR gene expression, Frizzled 10. The protocol: as §1, §2
The subject of assay [5] is Estrogen Receptor alpha. Put plainly: PCR gene expression, Estrogen Receptor alpha. The protocol:
as §1, §2

The test system of assay [6] is Hyaluronic acid synthase. Briefly: PCR gene expression, Hyaluronic acid synthase. The arrangement: key: (—): Not statistically significant. As to the method:
as §1, §2

SMILES strings stand for the structures. Several values for one entry are separate records, joined by “and”; a condition that tells them apart may be missing. Equal values may be shown once.

`CCNC(=O)CC[C@H](N)C(=O)O` [L-Theanine, L-theanine]: in assay [1], the “Beta-Catenin Transcript #” value is 10.31 and 8.678 (2×). In addition, in assay [2], the “Collagen 4 Transcript #” value is 10.79 and 9.561 and 10.49. The “Collagen 7 Transcript #” value in assay [3] is 12.87 and 10.72 and 11.44. Besides, the “Frizzled 10 Transcript #” value in assay [4] is 17.68 and 16.48 and 17.08. Also, the “Estrogen Receptor alpha Transcript #” value in assay [5] is 13.03 and 12.39 and 7.627. The “Hyaluronic acid synthase Transcript #” value in assay [6] is 10.53 and 7.971 and 8.113.
As to `N[C@@H](CSc1ccccc1)C(=O)O` [S-Phenyl-L-Cysteine], in assay [1], the “Beta-Catenin Transcript #” value was 14.67 and 15.49 and 11.41. Also, the “Collagen 4 Transcript #” value in assay [2] was 7.416 and 8.343 and 8.807. Besides, in assay [3], the “Collagen 7 Transcript #” value was 35.46 and 34.38 and 30.09. For the same compound, the “Frizzled 10 Transcript #” value in assay [4] is 34.68 and 26.67 and 30.62. Further, the “Estrogen Receptor alpha Transcript #” value in assay [5] was 8.12 and 10.99 and 8.598. In assay [6], the “Hyaluronic acid synthase Transcript #” value is 3.637 (2×) and 3.423.
For `CSC[C@H](N)C(=O)O` [S-Methyl-L-Cysteine], the “Beta-Catenin Transcript #” value in assay [1] was 8.657 and 10.39 and 9.955. For the same compound, the “Collagen 4 Transcript #” value in assay [2] was 9.845 and 10.83 and 9.353. In assay [3], the “Collagen 7 Transcript #” value is 14.83 and 16.55 (2×). Moreover, the “Frizzled 10 Transcript #” value in assay [4] was 18.65 and 16.26 and 18.41. The “Estrogen Receptor alpha Transcript #” value in assay [5] is 6.087 and 5.073. In addition, the “Hyaluronic acid synthase Transcript #” value in assay [6] is “—”.
